# Results reported in patent publication US20170273917A1, “NMDA RECEPTOR ANTAGONISTS FOR TREATING GAUCHER DISEASE” (Yeda Research and Development Co. Ltd., priority 2014, published 2017).
# How the values were obtained:
# Assay type in all cases: in vivo, mouse
# [1] = test system: CD68-positive cells in cortical layer V; assay: Immunohistochemistry of CD68-positive cells in cortical layer V of the brain
# Protocol: Immunohistochemistry—Mice were sacrificed and whole brains were fixed in 4% paraformaldehyde:PBS overnight at 4° C. Tissues were washed in PBS and sectioned with a microtome. Forty micrometer coronal sections were processed free floating in 2% BSA, 0.2% Triton X-100, PBS through all blocking, antibody incubation, and wash steps. Sections were incubated overnight at 4° C. with primary anti rat CD68 (AbD Serotec, Oxford, UK; 1:1000). Following washes, sections were incubated with secondary Cy2-conjugated donkey anti-rat antibody (1:200, Jackson). The presence of CD68-positive cells in cortical layer V of the brain was analyzed using an epifluorescent microscope (Zeiss).
# To verify the results of Example 1, the presence of CD68-positive cells in the cortical layer V of the brain was analyzed in two exemplary strains, AKR/J (average mortality on day 24) and BTBR T^+ITPR3TF/J (100% mortality on day 199).
# [2] = test system: GlcCer, GlcSo, GalCer, GalSo levels in the brain; assay: Sphingolipid analysis (LC-ESI-MS/MS) of brains of treated mice; settings: P18
# Protocol: Sphingolipid analysis—LC-ESI-MS/MS was performed using an ABI 4000 quadrupole-linear ion trap mass spectrometer as previously described (Farfel-Becker et al. Hum Mol Genet. 2014; 23(4):843-54). The sphingolipid internal standards were obtained from Avanti Polar Lipids (Alabaster, Ala., USA).
# In the next step, the consequences of GBA1 inhibition, GlcCer accumulation, was analyzed. As expected, CBE-treated mice presented higher levels of GlcCer in the brain in comparison to the controls. The average elevation in GlcCer levels in CBE-treated brains was 3.7-fold compared to PBS-treated mice (FIG. 3C). C18, the most abundant GlcCer species in the brain, was the main GlcCer species elevated (not shown). Importantly, there was no correlation between the levels of GlcCer in the brain and life spans either in the PBS(R^2=0.1441, data not shown) or CBE conditions (R^2=0.0569, FIG. 3C). There was also no correlation between the change in GlcCer levels in each strain and the life spans (R^2=0.0311, data not shown). In addition, no correlation was found between each individual GlcCer subspecies (C14, C16, C18:1, C18, C20, C22, C24:1, C24, C26:1, and C26) and life spans under PBS and CBE conditions (data not shown).
# Glucosylsphingosine (GlcSo) is another lipid known to be elevated in GD and it has been proposed as a GD biomarker (Rolfs et al. PLoS One. 2013 Nov. 20; 8(11):e79732). An average elevation of ˜36-fold in GlcSo levels was found in the CBE-treated brains as compared to the controls (FIG. 3D). The potential correlation between GlcSo levels and the life spans of mice was explored—no correlation was found either under PBS(R^2=0.068, data not shown), or in the CBE-treated brains (R^2=0.0013, FIG. 3D). Similarly to the other lipids, there was no correlation between the change in GlcSo levels and mice life spans (R^2=0.0775, data not shown).
# In addition, GalCer and GalSo levels were analyzed in the brains of the treated mice (FIGS. 3E-3F).
# Grin2b = assay: Cortical Grin2b mRNA levels by qPCR; settings: 10 days CBE vs PBS; short living (A/J, C57BL6/JolaHsd) and long living (NZW, FVB) strains
# Protocol: RNA extraction and quantitative PCR Following treatment, mice were sacrificed and their brains removed, placed on a Young Mouse Brain Slicer Matrix (BSMYS001-1, Zivic instruments, Pittsburgh, Pa., USA) and cut into 1 mm coronal sections. The cerebral cortex was separated using a spatula and snap-frozen in liquid N2 and stored at −80° C. Total RNA was isolated using the RNeasy mini kit (Qiagen GmbH, Hilden, Germany) according to manufacturer's instructions. Quantitative polymerase chain reaction (Q-PCR) was performed using PerfeCTa SYBR Green FastMix (Quanta BioSciences, Gaithersburg, Md., USA) and an ABI Prism 7300 Sequence Detection System (Applied Biosystems, Foster City, Calif., USA). […] Fold-change in mRNA levels was calculated using the comparative cycle threshold method using TATA box binding protein (TBP) for normalization. P-values were calculated using a two-tailed, two-independent sample Student's t-test. […]
# Based on the predictive studies described above, the involvement of Grin2b in the pathogenesis of neuropathic GD was evaluated. […] Since non-coding SNPs can regulate the expression of quantitative trait locus (QTL), the mRNA levels of Grin2b were determined by qPCR. […] The transcript levels was determined in 2 short living (A/J and C57BL6/JolaHsd) and 2 long living strains (NZW and FVB) 10 days following PBS or CBE treatment.
# [3] = test system: motor coordination of CBE-treated mice; assay: Locomotor testing by the hanging wire test; settings: short living CBE-treated strains; weekly from P21 for 2 months
# From the text: Locomotor testing—Locomotor coordination was weekly evaluated in the treated strains by the hanging wire test, a validated test for LSD mouse models (Alvarez et al. 2008). Briefly, the mouse was placed with forepaws at a center of a horizontal bar (3 mm diameter; 35 mm long).
# To further characterize the effect of CBE treatment on the different strains, motor behavior was followed weekly using the hanging wire test, starting at postnatal day 21 for a period of 2 months. The hanging wire test evaluates coordination and locomotor function, wherein a high score means better coordination. […] Of note, strains PWD/PhJ and WSB/EiJ were excluded in the motor behavior analysis due to their wild behavior.
smiles,measurement,setting,value
"O[C@H]1[C@H](O)[C@@H](O)[C@@H]2O[C@@H]2[C@@H]1O [CBE, Conduritol-β-epoxide]","brain pathology (CD68-positive cells, cortical layer V)","[1]; AKR/J mice treated with CBE, sacrificed P22",overt brain pathology
same,"brain pathology (CD68-positive cells, cortical layer V) and mortality","[1]; BTBR T+ITPR3TF/J mice treated with CBE, sacrificed P208",less sensitive to CBE both in terms of mortality and brain pathology
same,average elevation in GlcCer levels in the brain,[2]; CBE-treated brains compared to PBS-treated mice,3.7 fold
same,average elevation in GlcSo levels in the brain,[2]; CBE-treated brains compared to controls,~36 fold
same,GalCer levels in the brain,[2]; CBE-treated mice vs PBS,no elevation
same,GalSo levels in the brain,[2]; CBE-treated mice vs PBS,no elevation
same,"Grin2b expression levels (cortical mRNA, qPCR)",Grin2b,increased only in the short-living strains
same,motor behavior (hanging wire test),[3],poor motor behaviors starting at very early time points
